From PubChem BioAssay (NCI)
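Step 1: Grow cells in 96-well plates. Step 2: Expose to compound for 48 hours at 5 concentrations. Step 3: Interpolate endpoints linearly; if unreached, use highest concentration. GI50: concentration for 50% inhibition of growth. TGI: total growth inhibition.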

Key:
Assay in all cases: NCI anticancer screen, dose series, 48 h; in the data active = GI50 below about 0.43 µM; inactive = the rest
SF-295 CNS = test system: SF-295 CNS
MCF7 breast = test system: MCF7 breast
U251 CNS = test system: U251 CNS
OVCAR-4 ovarian = test system: OVCAR-4 ovarian
ACHN renal = test system: ACHN renal
786-0 renal = test system: 786-0 renal
HCC-2998 colon = test system: HCC-2998 colon
LOX IMVI melanoma = test system: LOX IMVI melanoma
HOP-92 NSCLC = test system: HOP-92 NSCLC
COLO 205 colon = test system: COLO 205 colon
EKVX NSCLC = test system: EKVX NSCLC
SK-MEL-5 melanoma = test system: SK-MEL-5 melanoma
NCI-H460 lung = test system: NCI-H460 lung
SF-539 CNS = test system: SF-539 CNS
SN12C renal = test system: SN12C renal
MDA-MB-231 breast = test system: MDA-MB-231 breast
UACC-62 melanoma = test system: UACC-62 melanoma
SNB-75 CNS = test system: SNB-75 CNS
SNB-19 CNS = test system: SNB-19 CNS
MDA-MB-468 breast = test system: MDA-MB-468 breast
NCI-H226 lung = test system: NCI-H226 lung
UACC-257 melanoma = test system: UACC-257 melanoma
RXF 393 renal = test system: RXF 393 renal
A549 NSCLC = test system: A549 NSCLC
RPMI-8226 leukemia = test system: RPMI-8226 leukemia
HCT-15 colon = test system: HCT-15 colon
HT29 colon = test system: HT29 colon
SW-620 colon = test system: SW-620 colon
T-47D breast = test system: T-47D breast
MOLT-4 leukemia = test system: MOLT-4 leukemia
HL-60(TB) leukemia = test system: HL-60(TB) leukemia
HS 578T breast = test system: HS 578T breast
CAKI-1 renal = test system: CAKI-1 renal
KM12 colon = test system: KM12 colon
SR leukemia = test system: SR leukemia
OVCAR-3 ovarian = test system: OVCAR-3 ovarian
PC-3 prostate = test system: PC-3 prostate
IGROV1 ovarian = test system: IGROV1 ovarian
OVCAR-5 ovarian = test system: OVCAR-5 ovarian
SF-268 CNS = test system: SF-268 CNS
DU-145 prostate = test system: DU-145 prostate
NCI-H522 lung = test system: NCI-H522 lung
MDA-MB-435 = test system: MDA-MB-435
NCI/ADR-RES ovarian = test system: NCI/ADR-RES ovarian
SK-MEL-2 melanoma = test system: SK-MEL-2 melanoma
UO-31 renal = test system: UO-31 renal
NCI-H23 lung = test system: NCI-H23 lung
OVCAR-8 ovarian = test system: OVCAR-8 ovarian
M14 melanoma = test system: M14 melanoma
HOP-62 NSCLC = test system: HOP-62 NSCLC
BT-549 breast = test system: BT-549 breast
SK-MEL-28 melanoma = test system: SK-MEL-28 melanoma
HCT-116 colon = test system: HCT-116 colon
SK-OV-3 ovarian = test system: SK-OV-3 ovarian
CCRF-CEM leukemia = test system: CCRF-CEM leukemia
A498 renal = test system: A498 renal
TK-10 renal = test system: TK-10 renal
MALME-3M melanoma = test system: MALME-3M melanoma
K-562 leukemia = test system: K-562 leukemia

Cc1ccc(CNC(=O)Cc2ccc3c(c2)CN(C2CCC(=O)NC2=O)C3=O)cc1 (centres undefined)
< 12.6 nM: TGI (MALME-3M melanoma)
258 nM: TGI (HCC-2998 colon)
59.4 nM: TGI (SK-MEL-5 melanoma)
648 nM: TGI (A498 renal)
267 nM: TGI (HS 578T breast)
1030 nM: TGI (NCI-H226 lung)
357 nM: TGI (SNB-75 CNS)
54.5 nM: TGI (COLO 205 colon)
< 12.8 nM: TGI (BT-549 breast)
955 nM: TGI (RXF 393 renal)
1850 nM: TGI (M14 melanoma)
888 nM: TGI (HCT-15 colon)
94.5 nM: TGI (SK-MEL-2 melanoma)
inactive: GI50 (ACHN renal) 445 nM | GI50 (LOX IMVI melanoma) > 71600 nM | GI50 (NCI-H460 lung) > 100000 nM | GI50 (UACC-257 melanoma) > 100000 nM | GI50 (SR leukemia) 4540 nM | GI50 (DU-145 prostate) 1090 nM | GI50 (NCI-H522 lung) 622 nM | GI50 (NCI/ADR-RES ovarian) 470 nM | GI50 (NCI-H23 lung) 5090 nM | GI50 (HCT-116 colon) > 36500 nM
110 nM: TGI (HOP-62 NSCLC)
> 100000 nM: TGI (SF-295 CNS) | TGI (MCF7 breast) | TGI (U251 CNS) | TGI (ACHN renal) | TGI (LOX IMVI melanoma) | TGI (EKVX NSCLC) | TGI (NCI-H460 lung) | TGI (SF-539 CNS) | TGI (UACC-62 melanoma) | TGI (UACC-257 melanoma) | TGI (A549 NSCLC) | TGI (RPMI-8226 leukemia) | TGI (HT29 colon) | TGI (SW-620 colon) | TGI (MOLT-4 leukemia) | TGI (CAKI-1 renal) | TGI (KM12 colon) | TGI (SR leukemia) | TGI (OVCAR-3 ovarian) | TGI (SF-268 CNS) | TGI (DU-145 prostate) | TGI (NCI-H522 lung) | TGI (MDA-MB-435) | TGI (NCI/ADR-RES ovarian) | TGI (NCI-H23 lung) | TGI (SK-MEL-28 melanoma) | TGI (HCT-116 colon) | TGI (CCRF-CEM leukemia) | TGI (TK-10 renal) | TGI (K-562 leukemia)
2740 nM: TGI (HL-60(TB) leukemia)
< 19.6 nM: TGI (HOP-92 NSCLC)
29.2 nM: TGI (T-47D breast)
active: GI50 (SF-295 CNS) 46 nM | GI50 (MCF7 breast) 21.7 nM | GI50 (U251 CNS) 375 nM | GI50 (OVCAR-4 ovarian) 32.1 nM | GI50 (786-0 renal) 20.2 nM | GI50 (HCC-2998 colon) < 10 nM | GI50 (HOP-92 NSCLC) < 10 nM | GI50 (COLO 205 colon) < 10 nM | GI50 (EKVX NSCLC) 384 nM | GI50 (SK-MEL-5 melanoma) 14.8 nM | GI50 (SF-539 CNS) 50.3 nM | GI50 (SN12C renal) 21.7 nM | GI50 (MDA-MB-231 breast) < 10 nM | GI50 (UACC-62 melanoma) 309 nM | GI50 (SNB-75 CNS) < 10 nM | GI50 (SNB-19 CNS) < 11.5 nM | GI50 (MDA-MB-468 breast) < 10 nM | GI50 (NCI-H226 lung) < 10 nM | GI50 (RXF 393 renal) 24.8 nM | GI50 (A549 NSCLC) 51.5 nM | GI50 (RPMI-8226 leukemia) 40.9 nM | GI50 (HCT-15 colon) 16 nM | GI50 (HT29 colon) 50.1 nM | GI50 (SW-620 colon) < 10 nM | GI50 (T-47D breast) < 10 nM | GI50 (MOLT-4 leukemia) < 10 nM | GI50 (HL-60(TB) leukemia) < 10 nM | GI50 (HS 578T breast) < 10 nM | GI50 (CAKI-1 renal) 25.1 nM | GI50 (KM12 colon) 31.1 nM | GI50 (OVCAR-3 ovarian) 160 nM | GI50 (PC-3 prostate) < 10 nM | GI50 (IGROV1 ovarian) < 10 nM | GI50 (OVCAR-5 ovarian) 16.9 nM | GI50 (SF-268 CNS) 29.9 nM | GI50 (MDA-MB-435) 43.6 nM | GI50 (SK-MEL-2 melanoma) 20.6 nM | GI50 (UO-31 renal) 19.1 nM | GI50 (OVCAR-8 ovarian) < 10 nM | GI50 (M14 melanoma) < 13.1 nM | GI50 (HOP-62 NSCLC) < 10 nM | GI50 (BT-549 breast) < 10 nM | GI50 (SK-MEL-28 melanoma) 70.1 nM | GI50 (SK-OV-3 ovarian) 77 nM | GI50 (CCRF-CEM leukemia) < 10 nM | GI50 (A498 renal) 18.3 nM | GI50 (TK-10 renal) 95.3 nM | GI50 (MALME-3M melanoma) < 10 nM | GI50 (K-562 leukemia) 51.5 nM
148 nM: TGI (IGROV1 ovarian)
1780 nM: TGI (OVCAR-5 ovarian)
469 nM: TGI (UO-31 renal)
